# Experimental data taken from patent US20140100290A1, “Method of treating a prostate condition” (priority 2012, published 2014).
# Experiments:
# LNCaP cells = assay: Phosphatidylserine externalization by fluorescence microscopy (PSVue 480) in LNCaP cells; type: cell-based, Human; conditions: 10 μM and 1000 μM, 48 hours, dose-dependent
# Protocol: Human metastatic prostate cancer cells, LNCaP, were obtained from ATCC (Manassas, Va., USA). Cells were grown in RPMI-1640 medium supplemented with 2mM glutamine, 10% FBS, 100 U/mL penicillin, and 100 μg/mL streptomycin. LNCaP cells were maintained in a humidified atmosphere of 5% CO2 at 37° C. in T-75 flasks and were subcultured when confluent. Experiments were conducted using cells with passage numbers ranging from 5-20.
# One of the earliest events to occur in apoptosis or programmed cell death is the externalization of phosphatidylserine (PS), a membrane phospholipid restricted to the inner leaflet of the lipid bilayer. Redistribution of PS from the inner leaflet to the outer leaflet occurs in cells undergoing apoptosis. The PSVue™ 480 reagent kit was used to perform the phosphatidylserine (PS) externalization assay. The principle behind this assay involves a strong binding of PSVue™ 480 (fluorescent probe) to the anionic PS residues exposed on the surface of the apoptotic cells by its Zn (II)-dipicolylamine (Zn-DPA) functionality, making it a useful apoptotic sensor.
# To detect PS externalization, LNCaP cells were seeded as 0.5×10^6 cells/well in flat-bottom, 6-well microtiter plates. After 24 hours of incubation at 37° C., cells were treated with 10 μM and 1000 μM of carvacrol for 48 hours. […]
# [1] = system: cytochrome c release in PC-3 cells; assay: Western blot analysis of cytochrome c release in PC-3 cells; type: cell-based, Human; conditions: 48 h
# Protocol: Cell Line and Culture Conditions • Human metastatic, androgen insensitive prostate cancer cells, PC-3, were obtained from ATCC (Manassas, Va., USA). Cells were grown in F-12K medium supplemented with 2 mM glutamine, 10% FBS, 100 U/mL penicillin, and 100 μg/mL streptomycin. PC-3 cells were maintained in a humidified atmosphere of 5% CO2 at 37° C. in T-75 flasks and were subcultured when confluent.
# Western blotting is a widely used analytical technique for detection of specific proteins separated from one another according to their size by gel electrophoresis. […] Once detected, the target protein will be visualized as a band on a blotting membrane, X-ray film, or an imaging system.
# Cytochrome c is a heme-containing component of the electron transport chain in the mitochondrial membrane. […] In order to further confirm that carvacrol induced apoptosis in these cells, the release of cytochrome c from mitochondria into cytosol was analyzed using Western blot analysis in carvacrol-treated cells. […]
# After maintaining constant agitation at 4° C. for 30 minutes, lysates were collected in microcentrifuge tubes and centrifuged at 12,000 rpm at 4° C. for 20 minutes. […] Protein concentration was determined using the Pierce® BCA protein assay kit. […] Western blot images are representative of at least 3 independent experiments, while quantification data represent mean±S.E.M. of n≧3 experiments.
smiles,measurement,setting,value
Cc1ccc(C(C)C)cc1O [Carvacrol],externalization of phosphatidylserine residues (PSVue 480 positive cells),LNCaP cells,showed externalization of phosphatidylserine residues
same,cytochrome c levels in cytosol (Western blot),"[1]; 10 μM, compared to solvent control",Increase in cytochrome c levels in cytosol was observed
same,cytochrome c levels (Western blot),"[1]; 2000 μM, compared to 10 μM carvacrol-treated cells",decrease in levels of cytochrome c
